According to US12337003B2, “Pharmaceutical compositions for combination therapy” (Intercept Pharmaceuticals, Inc., priority 2015, dated 2025):

Assays:
[1] = test system: leukocyte extravasation signaling; assay: Hepatic gene expression profiling (RNA sequencing, pathway analysis) in APOE*3Leiden.CETP mice; format: in vivo
Protocol: (§1) This experiment was performed to evaluate the effects of OCA and fenofibrate, alone or in combination, on the development of diet induced NASH and liver fibrosis in APOE*3Leiden.CETP transgenic mice. Hepatic gene expression profiling and subsequent pathway analysis were performed to determine whether the combination regulates novel genes not regulated by either monotherapy treatment, and/or more strongly regulates genes also impacted by the monotherapy.
(§2) Mice were fed a high fat chow (HFC) diet for […]. After 15 weeks on the HFC diet, HFC mice were matched into 7 groups based on age, body weight, plasma cholesterol and triglycerides after 4 h fasting. Mice were treated with of OCA and fenofibrate, alone or in combination beginning at week 15 and sacrificed at week 25 in an unfasted state. One week before sacrifice, mice were labeled with D20, by i.p. injection of a bolus of D20 and subsequent addition of 4% D20 to the drinking water. Plasma (EDTA) was obtained by heart puncture and stored at −70° C. The liver was weighed and 4 pieces of liver were isolated: 1 piece (medial lobe) was fixed in 10% formalin (for NASH and fibrosis histology) and 3 pieces (sinister lobe) were snap-frozen in liquid N2 and stored individually at −70° C.
Nucleic acid extraction was performed as described previously in detail (Verschuren et al., 2014). Briefly, total RNA was extracted from individual liver samples using glass beads and RNAzol (Campro Scientific, Veenendaal, The Netherlands). RNA concentration and quality was determined using the Fragment Analyzer (Advanced Analytical Technologies, USA) and the RNA 6000 Nano Lab-on-a-Chip kit and a Bioanalyzer 2100 (Agilent Technologies, Amstelveen, The Netherlands). All samples met the quality requirements and were used in the RNA sequencing procedure.
The NEBNext Ultra Directional RNA library Prep Kit for Illumina was used to process the samples. The sample preparation was performed according to the protocol “NEBNext Ultra Directional RNA Library Prep Kit for Illumina” (NEB #E7420S/L). Briefly, mRNA was isolated from total RNA using oligo-dT magnetic beads. After fragmentation of the mRNA, a cDNA synthesis was performed. This was used for ligation of sequencing adapters and PCR amplification of the resulting product. The quality and yield after sample preparation was measured with the Fragment Analyzer (Advanced Analytical Technologies, USA). The size of the resulting products was consistent with the expected size distribution (a broad peak between 300-500 bp).
Clustering and DNA sequencing using the Illumina […] was performed according manufacturer's protocols. Data was generated using single-end read sequencing protocol obtaining approx. 15 million reads per sample and 75 bp per read. Image analysis, base calling, and quality check was performed with the Illumina data analysis pipeline RTA v2.4.11 to generate the raw data (*.fastq-files).
The reads were mapped to the reference sequence Mus musculus GRCm38.p3 using a short read aligner based on Burrows-Wheeler Transform. The default mismatch rate of 2% (3 mismatches in a read of 150 bases) was used. Based on the mapped read locations in the alignment files (*.bam-files) the frequency of how often a read was mapped on a transcript was determined. The counts were saved to count-files, which served as input for downstream mRNA-seq differential expression analysis. The read counts were loaded into the DESeq package, a statistical package within the R platform. […]

[2] = test system: APOE*3Leiden.CETP transgenic mice on high fat diet; assay: Diet induced NASH in APOE*3Leiden.CETP mice, hepatic inflammation score; format: in vivo; details: for Inflammation (# of inflammatory cell foci): in high fat diet
Protocol: as §1
Male APOE*3Leiden.CETP transgenic mice (9-21 weeks old) were obtained and housed 2-5 mice per cage. The mice were fed a high fat diet containing 24% lard and 1% (w/w) cholesterol. The run in period was 15 weeks on the high fat diet. At week 16, mice were matched based on age, body weight, plasma cholesterol and triglycerides after 4 h fasting.
• Mice (n=15) were fed a high fat diet during the run in weeks 0 to 14. Group 2: HFC control group • Mice (n=15) were fed a high fat diet from weeks 0 to 24. Group 3: HFC+OCA • Mice (n=15) were fed a high fat diet supplemented with OCA at a dose of 10 mg/kg once daily from week 16 to 24. Group 4: HFC+low dose fenofibrate • Mice (n=15) were fed a high fat diet supplemented with fenofibrate at a dose of 10 mg/kg once daily from week 16 to 24. Group 5: HFC+high dose fenofibrate • Mice (n=15) were fed a high fat diet supplemented with fenofibrate at a dose of 40 mg/kg once daily from week 16 to 24. Group 6: HFC+OCA+low dose fenofibrate • Mice (n=15) were fed a high fat diet supplemented with OCA at a dose of 10 mg/kg once daily and fenofibrate at a dose of 10 mg/kg once daily from week 16 to 24. Group 7: HFC+OCA+high dose fenofibrate • Mice (n=15) were fed a high fat diet supplemented with OCA at a dose of 10 mg/kg once daily and fenofibrate at a dose of 40 mg/kg once daily from week 16 to 24. Group 8: Chow control group • Mice (n=8) were feed chow from week 0 to 24. Study Design
as §2
Inflammation is a key feature of NASH. Inflammation was categorized according to the procedure by Liang et al., PlosOne 2014 Dec. 9(12) and scored by quantitatively analyzing the number of inflammatory cells aggregates. In particular, the level of inflammation was evaluated by counting the number of inflammatory foci per field using a 100× magnification (view size of 3.1 mm2; average of five different fields).

[3] = test system: fibrosis induced by common bile duct ligation in mice; assay: Bile duct ligation (BDL) model, Sirius-red staining of liver sections; format: in vivo, C57BL/6 mice; details: mean ± SD, OCA 5 mg/kg and/or atorvastatin 10 mg/kg orally once daily day 0 to day 6
Protocol: This experiment was performed to evaluate the effects of OCA and atorvastatin alone, and in combination, on fibrosis induced by common bile duct ligation in mice.
Male C57BL/6 mice (6 weeks of age) were obtained from Japan SLC. The animals were maintained in a specific pathogen free facility under controlled conditions of temperature (23±2° C.), humidity (45±10%), lighting (12-hour artificial light and dark cycles; light from 8:00 to 20:00), and air exchange (air exchange rate: more than 40 times/hour). A high pressure (20±4 Pa) was maintained in the experimental room to prevent contamination of the facility. The animals were housed in KN-600 (Natsume Seisakusho, Japan) with a maximum of 6 mice per cage. […]
Viability, clinical signs and behavior were monitored daily. Body weight was recorded daily during the treatment period. Food consumption was measured twice weekly per cage during the treatment period. […]
To visualize collagen deposition, Bouin's-fixed left lateral liver sections were stained using picro-Sirius red solution (Waldeck, Germany). For quantitative analysis of the fibrosis area, bright field images of Sirius red-stained sections were captured around the central vein using a digital camera (DFC295; Leica, Germany) at 100-fold magnification, and the positive areas in 5 fields/section were measured using ImageJ software (National Institute of Health, USA). […]

[4] = high dose fenofibrate 40 mg/kg, alone or with OCA 10 mg/kg

Structure (SMILES) | number of uniquely regulated genes ([1]; Venn diagram, OCA 10 mg/kg, fenofibrate 10 mg/kg, combination) | enrichment analysis of canonical (inflammatory) pathways ([1]; liver mRNA, OCA 10 mg/kg and/or low dose fenofibrate vs HFC) | Inflammation (# of inflammatory cell foci) ([2]; OCA 10 mg/kg and/or low dose fenofibrate 10 mg/kg) | reduction in inflammation [2, 4] [%] | Inflammation (# of inflammatory cell foci) [2, 4] | Sirius red-positive area (%) [3] [%]
CC(C)OC(=O)C(C)(C)Oc1ccc(C(=O)c2ccc(Cl)cc2)cc1 [fenofibrate] | 92 | no effect | 22.0 ± 15.6 | −74 | 7.1 ± 5.9 | 
CC(C)c1c(C(=O)Nc2ccccc2)c(-c2ccccc2)c(-c2ccc(F)cc2)n1CC[C@@H](O)C[C@@H](O)CC(=O)O [ATO, atorvastatin, reference compound] |  |  |  |  |  | 2.31 ± 0.63
